This assay deals with chick spinal motoneurons. As to the kind of experiment: Motoneuron culture deprived of muscle extract, survival. The class given is cell-based. Particulars: without muscle extract, treated between 14 and 24 hours, counted after 3 days. The text has this:
A tissue culture model system that allows isolation of a relatively pure population of motoneurons whose survival is dependent on muscle extract, a potent source of target-derived trophic support, was used to test the ability of peptide inhibitors of ICE to block motoneuron cell death (Milligan et al., J Neurobiology 25:1005-1016 (1994) and Block-Gallego et al., Development. 111:221-232 (1991)). The death of motoneurons deprived of trophic support in vitro requires new gene expression and occurs by apoptosis (Milligan et al., J. Neurobiology 25:1005-1016 (1994)). Motoneurons deprived of trophic support at the time of plating become irreversibly committed to undergo cell death after 16-18 hours (Milligan et al., J. Neurobiology 25:1005-1016 (1994)). […] When motoneurons are treated with peptide inhibitors in the absence of muscle extract for three days and subsequently supplemented on day three with muscle extract, they continue to survive, and by six days appear as healthy and differentiated as the motoneurons that were continuously supplied with muscle extract (FIGS. 12A, 12B, 15G). Thus, motoneurons rescued for 3 days by ICE inhibitors remain capable of responding to trophic factors present in muscle extract.
Methods for motoneuron cultures. […]

For the substance “Acetyl-Tyr-Val-Ala-Asp-aldehyde [Ac-YVAD-CHO]”, the motoneuron death result is “inhibitory effects on motoneuron death”.

Source of the values: patent US6939850B2, “Altered human interleukin-1β convertase (ICE), NEDD-2, and C. elegans ced-3 polypeptides and uses therefor” (Massachusetts Institute of Technology, priority 1992, dated 2005).
